In US20200071316A1, “ACTIVATORS OF THE RETINOIC ACID INDUCIBLE GENE "RIG-I" PATHWAY AND METHODS OF USE THEREOF” (Kineta Immuno-Oncology LLC, priority 2018, published 2020):
Marks after values point to notes of the source that are not given here.

Assays:
[1] = test system: CXCL10 secretion by CT26 cells; assay: RIG-I dependent CXCL10 secretion by CT26 colon carcinoma cells (ELISA); assay type: cell-based, murine; details: 24 h
Procedure, shortened: (§1)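 Murine CT26 colon carcinoma cells, and CRISPR-generated RIG-I knockout CT26 cells, were seeded at 1×10^4 cells/well and grown 24 h at 37 °C, 5% CO2, then treated with compounds at 5 to 20 μM. CXCL10 in supernatants was measured by ELISA 24 h after stimulation.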

[2] = test system: RIG-I deficient CT26 RIG-1−/− cells; assay: CXCL10 secretion in RIG-I deficient CT26 RIG-1−/− cells (ELISA); assay type: cell-based, murine; details: 24 h
Procedure, shortened: as §1

[3] = test system: THP1-Lucia ISG IRF3 −/− cells; assay: IRF3-deficient THP1-Lucia ISG IRF3 −/− reporter assay (counter-screen); assay type: cell-based; details: Homo sapiens, 18 h after stimulation, read-out: THP1 ISG IRF3 −/−: fold increase of luciferase activity over background; for fold induction at 10 µM: 10 μM compound; for fold induction at 5 µM: 5 μM compound (**)
Procedure, shortened: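 PMA-differentiated (100 ng/ml) reporter cells carrying ISRE/ISG54 minimal promoter-driven secreted luciferase were stimulated with compounds at 5–20 μM (mostly 10 μM). Luciferase measured 18 h later and expressed as fold increase over untreated background, binned from "−" (<2.4-fold) to "+++++" (≥40-fold).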

[4] = test system: IRF3 signaling pathway (IRF-inducible ISG54 promotor) in THP1-Lucia ISG cells; assay: THP1-Lucia ISG reporter assay: induction of IRF3-dependent luciferase activity; assay type: cell-based; details: Homo sapiens, PMA-differentiated cells, 18 h after stimulation, read-out: THP1 ISG: fold increase of IRF3-dependent luciferase activity over background; for fold induction at 10 µM: 10 μM compound; for fold induction at 5 µM: 5 μM compound (**)
Procedure, shortened: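 PMA-differentiated (100 ng/ml) reporter cells, parental and IRF3−/−, stimulated with compounds at 5–20 μM (mostly 10 μM). Secreted luciferase measured 18 h later. Scored as fold increase over untreated background in bands from "−" (<2.4-fold) to "+++++" (≥40-fold).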

O=C(Nc1nc2ccc(OCC(F)(F)F)cc2s1)c1cc2ccccc2cc1OCCN1CCOCC1 [Example 54, 3-[2-(morpholin-4-yl)ethoxy]-N-[6-(2,2,2-trifluoroethoxy)-1,3-benzothiazol-2-yl]naphthalene-2-carboxamide]
CXCL10 secretion by CT26 cells ([1]; 10 μM compound): − (“−” indicates less than 100 pg/mL)
CXCL10 secretion by CT26 RIG-I −/− cells ([2]; 10 μM compound): − (“−” indicates less than 100 pg/mL)
fold induction at 10 µM [3]: < 2.4
fold induction at 10 µM [4]: 2.4 to 4.9

O=C(Nc1nc2ccc(S(=O)(=O)N3CC4(COC4)C3)cc2s1)c1cc2ccccc2cc1OCCCCN1CCOCC1 [Example 55, 3-[4-(morpholin-4-yl)butoxy]-N-(6-{2-oxa-6-azaspiro[3.3]heptane-6-sulfonyl}-1,3-benzothiazol-2-yl)naphthalene-2-carboxamide]
CXCL10 secretion by CT26 cells ([1]; 10 μM compound): ++ (“++” indicates 200-399 pg/mL)
CXCL10 secretion by CT26 RIG-I −/− cells ([2]; 10 μM compound): − (“−” indicates less than 100 pg/mL)
fold induction at 10 µM [3]: < 2.4
fold induction at 10 µM [4]: 2.4 to 4.9

O=C(Nc1nc2ccc(S(=O)(=O)N3CCC(O)C3)cc2s1)c1cc2ccccc2cc1OCCN1CCOCC1 (stereo not drawn) [Example 56, N-{6-[(3-hydroxypyrrolidin-1-yl)sulfonyl]-1,3-benzothiazol-2-yl}-3-[2-(morpholin-4-yl)ethoxy]naphthalene-2-carboxamide]
CXCL10 secretion by CT26 cells ([1]; 10 μM compound): +++ (“+++” indicates 400-799 pg/mL)
CXCL10 secretion by CT26 RIG-I −/− cells ([2]; 10 μM compound): − (“−” indicates less than 100 pg/mL)
fold induction at 10 µM [3]: < 2.4
fold induction at 10 µM [4]: 10 to 19

O=C(Nc1nc2ccc(S(=O)(=O)N3CCC(O)C3)cc2s1)c1cc2ccccc2cc1OCCCCN1CCOCC1 (stereo not drawn) [Example 57, N-{6-[(3-hydroxypyrrolidin-1-yl)sulfonyl]-1,3-benzothiazol-2-yl}-3-[4-(morpholin-4-yl)butoxy]naphthalene-2-carboxamide]
CXCL10 secretion by CT26 cells ([1]; 10 μM compound): +++ (“+++” indicates 400-799 pg/mL)
CXCL10 secretion by CT26 RIG-I −/− cells ([2]; 10 μM compound): − (“−” indicates less than 100 pg/mL)
fold induction at 10 µM [3]: < 2.4
fold induction at 10 µM [4]: 10 to 19

O=C(Nc1nc2ccc(OCC(F)(F)F)cc2s1)c1cc2ccccc2cc1OCCCCN1CCOCC1 [Example 58, 3-[4-(morpholin-4-yl)butoxy]-N-[6-(2,2,2-trifluoroethoxy)-1,3-benzothiazol-2-yl]naphthalene-2-carboxamide]
CXCL10 secretion by CT26 cells ([1]; 10 μM compound): ++ (“++” indicates 200-399 pg/mL)
CXCL10 secretion by CT26 RIG-I −/− cells ([2]; 10 μM compound): − (“−” indicates less than 100 pg/mL)
fold induction at 10 µM [3]: < 2.4
fold induction at 10 µM [4]: 5 to 9.9

O=C(Nc1nc2ccc(S(=O)(=O)N3CCC3)cc2s1)c1ccc(-c2ccccc2)cc1OCCCCN1CCOCC1 [Example 59]
CXCL10 secretion by CT26 cells ([1]; 10 μM compound): +++ (“+++” indicates 400-799 pg/mL)
CXCL10 secretion by CT26 RIG-I −/− cells ([2]; 10 μM compound): − (“−” indicates less than 100 pg/mL)
fold induction at 10 µM [3]: < 2.4
fold induction at 10 µM [4]: 10 to 19

O=C(Nc1nc2ccc(S(=O)(=O)N3CCC3)cc2s1)c1ccc(-c2ccccc2)cc1OCCN1CCOCC1 [Example 60, N-[6-(azetidine-1-sulfonyl)-1,3-benzothiazol-2-yl]-3-[2-(morpholin-4-yl)ethoxy]-[1,1′-biphenyl]-4-carboxamide]
CXCL10 secretion by CT26 cells ([1]; 10 μM compound): ++++ (“++++” indicates 800 to 1599 pg/mL)
CXCL10 secretion by CT26 RIG-I −/− cells ([2]; 10 μM compound): − (“−” indicates less than 100 pg/mL)
fold induction at 10 µM [3]: < 2.4
fold induction at 10 µM [4]: 20 to 39

O=C(Nc1nc2ccc(S(=O)(=O)N3CCC3)cc2s1)c1cc2c(cc1OCCN1CCOCC1)OCO2 [Example 61, N-[6-(azetidine-1-sulfonyl)-1,3-benzothiazol-2-yl]-6-[2-(morpholin-4-yl)ethoxy]-2H-1,3-bezodioxole-5-carboxamide]
CXCL10 secretion by CT26 cells ([1]; 10 μM compound): ++ (“++” indicates 200-399 pg/mL)
CXCL10 secretion by CT26 RIG-I −/− cells ([2]; 10 μM compound): − (“−” indicates less than 100 pg/mL)
fold induction at 10 µM [3]: < 2.4
fold induction at 10 µM [4]: 5 to 9.9

O=C(Nc1nc2ccc(S(=O)(=O)N3CCC3)cc2s1)c1cc2ccsc2cc1OCCN1CCOCC1 [Example 62, N-[6-(azetidine-1-sulfonyl)-1,3-benzothiazol-2-yl]-6-[2-(morpholin-4-yl)ethoxy]-1-benzothiophene-5-carboxamide]
CXCL10 secretion by CT26 cells ([1]; 10 μM compound): ++++ (“++++” indicates 800 to 1599 pg/mL)
CXCL10 secretion by CT26 RIG-I −/− cells ([2]; 10 μM compound): − (“−” indicates less than 100 pg/mL)
fold induction at 10 µM [3]: < 2.4
fold induction at 10 µM [4]: 20 to 39

O=C(Nc1nc2ccc(S(=O)(=O)N3CCC3)cc2s1)c1cc2ccsc2cc1OCCCCN1CCOCC1 [Example 63, N-[6-(azetidine-1-sulfonyl)-1,3-benzothiazol-2-yl]-6-[4-(morpholin-4-yl)butoxy]-1-benzothiophene-5-carboxamide]
CXCL10 secretion by CT26 cells ([1]; 10 μM compound): + (“+” indicates 100-199 pg/mL)
CXCL10 secretion by CT26 RIG-I −/− cells ([2]; 10 μM compound): − (“−” indicates less than 100 pg/mL)
fold induction at 10 µM [3]: < 2.4
fold induction at 10 µM [4]: 2.4 to 4.9

O=C(Nc1nc2ccc(S(=O)(=O)N3CCC3)cc2s1)c1cc2c(cc1OCCCCN1CCOCC1)OCO2 [Example 64, N-[6-(azetidine-1-sulfonyl)-1,3-benzothiazol-2-yl]-6-[4-(morpholin-4-yl)butoxy]-2H-1,3-benzodioxole-5-carboxamide]
CXCL10 secretion by CT26 cells ([1]; 10 μM compound): +++ (“+++” indicates 400-799 pg/mL)
CXCL10 secretion by CT26 RIG-I −/− cells ([2]; 10 μM compound): − (“−” indicates less than 100 pg/mL)
fold induction at 10 µM [3]: < 2.4
fold induction at 10 µM [4]: 10 to 19

O=C(Nc1nc2ccc(S(=O)(=O)N3CC4(COC4)C3)cc2s1)c1cc2ccccc2cc1OCCN1CCOCC1 [Example 65, 3-[2-(morpholin-4-yl)ethoxy]-N-(6-{2-oxa-6-azaspiro[3.3]heptane-6-sulfonyl}-1,3-benzothiazol-2-yl)naphthalene-2-carboxamide]
CXCL10 secretion by CT26 cells ([1]; 10 μM compound): + (“+” indicates 100-199 pg/mL)
CXCL10 secretion by CT26 RIG-I −/− cells ([2]; 10 μM compound): − (“−” indicates less than 100 pg/mL)
fold induction at 10 µM [3]: < 2.4
fold induction at 10 µM [4]: 2.4 to 4.9

COC(=O)c1ccc2nc(NC(=O)c3cc4ccccc4cc3OCCCCN3CCOCC3)sc2c1 [Example 66, methyl 2-{3-[4-(morpholin-4-yl)butoxy]naphthalene-2-amido}-1,3-benzothiazole-6-carboxylate]
CXCL10 secretion by CT26 cells ([1]; 5 μM compound (**)): ++** (“++” indicates 200-399 pg/mL)
CXCL10 secretion by CT26 RIG-I −/− cells ([2]; 5 μM compound (**)): −** (“−” indicates less than 100 pg/mL)
fold induction at 5 µM [3]: < 2.4
fold induction at 5 µM [4]: 5 to 9.9

Cn1ccc2cc(OCCN3CCOCC3)c(C(=O)Nc3nc4ccc(S(=O)(=O)N5CCCC5)cc4s3)cc21 [Example 67, 1-methyl-5-[2-(morpholin-4-yl)ethoxy]-N-[6-(pyrrolidine-1-sulfonyl)-1,3-benzothiazol-2-yl]-1H-indole-6-carboxamide]
CXCL10 secretion by CT26 cells ([1]; 10 μM compound): ++++ (“++++” indicates 800 to 1599 pg/mL)
CXCL10 secretion by CT26 RIG-I −/− cells ([2]; 10 μM compound): − (“−” indicates less than 100 pg/mL)
fold induction at 10 µM [3]: < 2.4
fold induction at 10 µM [4]: 20 to 39

O=C(Nc1cc2ccc(S(=O)(=O)N3CCCC3)cc2s1)c1ccc(-c2ccccc2)cc1OCCCCN1CCOCC1 [Example 68, 3-[4-(morpholin-4-yl)butoxy]-N-[6-(pyrrolidine-1-sulfonyl)-1-benzothiophen-2-yl]-[1,1′-biphenyl]-4-carboxamide]
CXCL10 secretion by CT26 cells ([1]; 10 μM compound): ++++ (“++++” indicates 800 to 1599 pg/mL)
CXCL10 secretion by CT26 RIG-I −/− cells ([2]; 10 μM compound): − (“−” indicates less than 100 pg/mL)
fold induction at 10 µM [3]: < 2.4
fold induction at 10 µM [4]: 20 to 39

COC(=O)c1ccc2nc(NC(=O)c3cc4ccccc4cc3OCCN3CCOCC3)sc2c1 [Example 69, methyl 2-{3-[2-(morpholin-4-yl)ethoxy]naphthalene-2-amido}-1,3-benzothiazole-6-carboxylate]
CXCL10 secretion by CT26 cells ([1]; 5 μM compound (**)): ++** (“++” indicates 200-399 pg/mL)
CXCL10 secretion by CT26 RIG-I −/− cells ([2]; 5 μM compound (**)): −** (“−” indicates less than 100 pg/mL)
fold induction at 5 µM [3]: < 2.4
fold induction at 5 µM [4]: 5 to 9.9

O=C(Nc1cc2ccc(S(=O)(=O)N3CCCC3)cc2s1)c1cc2ccccc2cc1OCCCCN1CCOCC1 [Example 70, 3-[4-(morpholin-4-yl)butoxy]-N-[6-(pyrrolidine-1-sulfonyl)-1-benzothiophen-2-yl]naphthalene-2-carboxamide]
CXCL10 secretion by CT26 cells ([1]; 10 μM compound): +++ (“+++” indicates 400-799 pg/mL)
CXCL10 secretion by CT26 RIG-I −/− cells ([2]; 10 μM compound): − (“−” indicates less than 100 pg/mL)
fold induction at 10 µM [3]: < 2.4
fold induction at 10 µM [4]: 10 to 19

O=C(Nc1cc2ccc(S(=O)(=O)N3CCCC3)cc2s1)c1ccc(-c2ccccc2)cc1OCCN1CCOCC1 [Example 71, 3-[2-(morpholin-4-yl)ethoxy]-N-[6-(pyrrolidine-1-sulfonyl)-1-benzothiophen-2-yl]-[1,1′-biphenyl]-4-carboxamide]
CXCL10 secretion by CT26 cells ([1]; 10 μM compound): − (“−” indicates less than 100 pg/mL)
CXCL10 secretion by CT26 RIG-I −/− cells ([2]; 10 μM compound): − (“−” indicates less than 100 pg/mL)
fold induction at 10 µM [3]: < 2.4
fold induction at 10 µM [4]: < 2.4
